Measurements from patent US7166440B2, “2,4,5-trichlorophenoxyalkyl carboxylic acid and a method for determining dioxins using the same” (priority 2003, dated 2007).

Assays:
[1] = tested on: monoclonal antibody of clone C-1 (anti-dioxin antibody); assay: Competitive EIA: inhibition of binding of clone C-1 monoclonal antibody to solid-phase antigen by free dioxin; set-up: species or system mouse
Protocol: (§1) Using various monoclonal antibodies, the specificity of the monoclonal antibodies to dioxin isomers was examined. The monoclonal antibodies were prepared in the following manner. An antibody-producing cell was injected into the abdominal cavity of a pristane-pretreated mouse. Th ascites fluid in the abdominal cavity caused by the growth of the cells was collected, and then a monoclonal antibody was purified by affinity chromatography using a protein G-Sepharose (manufactured by BIO-RAD Co.) as a carrier. Using three antibody-producing clones C-1, C-2 and C-3, respective monoclonal antibodies were prepared. The clones C-1, C-2 and C-3 produce monoclonal antibodies with respect to dibenzodioxin having chlorine atom at the 2-, 3-, 7-, and 8-positions.
(§2) To evaluate the specificity of the monoclonal antibody was performed according to the following principles. A solid-phase antigen (competitor) and a free dioxin (ligand) are allowed to compete with each other with respect to a free monoclonal antibody (anti-dioxin antibody). If the reactivity of the monoclonal antibody and the dioxin is higher than that of the monoclonal antibody and the solid-phase antigen, the binding of the monoclonal antibody to the solid-phase antigen is reduced. This reduction of the binding of the monoclonal antibody to the solid-phase antigen can be measured by color development method. This phenomenon can be applied to evaluate the specificity.
(§3) First, the immune antigen or the compound (IIa) conjugated with BSA that was produced in Example 2 was diluted with PBS to 1 μg/ml, and divided into each well of a 96-well assay plate (manufactured by Costar, Cat. No. 3590) in an amount of 50 μl. Then, the plate was sealed and allowed to stand at room temperature for one hour. Then, each well was washed with PBS containing 0.005% of Tween 20 three times. Next, 300 μl of Block Ace (manufactured by Snow Brand Milk Products Co., Ltd.) diluted with distilled water to a concentration of 25% was supplied to each well, and the plate was sealed and allowed to stand at 37° C. for two hours. Each well was washed with PBS containing 0.005% of Tween 20 three times. Then, a 25 μl of the dioxin compound solution of a final concentration of 5×10^−7 M was added to each well. The dioxin compound solution was prepared by diluting the dioxin with a dilution solvent comprising 20% DMSO and 0.01% of Triton X100. As controls, a dilution solvent in an amount of 25 μl was added to each well. Immediately after the addition of the dioxin compound solution or the dilution solvent, 25 μl of an antibody solution diluted with PBS containing 1 mg/ml of BSA was added to each well. The assay plate was stand at room temperature for one hour with slightly shaking.
(§4) After washing with PBS containing 0.005% of Tween 20 three times, 50 μl of the diluted HRP-labeled goat anti-mouse IgG (H+L) antibody (produced by affinity purification) was added to each well. The diluted HRP-labeled antibody was prepared by diluting the purchased HRP-labeled antibody to 2000 times as much with 10% Block Ace. The plate was allowed to stand at room temperature for one hour, followed by washing with PBS containing 0.005% of Tween 20 three times. Then, 50 μl of a HRP substrate, TMB (manufactured by KPL Co., Ltd.), was added to each well and allowed to stand at room temperature for 5 to 10 min. Then, 5 μl of a 1 M phosphate solution was added to each well, and the absorbance at a wavelength of 455 nm (655 nm for the reference) was measured with a spectrophotometer for a microtiter. The reactivity was evaluated by obtaining the absorbance (B0) at the time when the dioxin compound is not added, which is a control (diluent) and the absorbance (B) at the time when the dioxin compound is added. The inhibition rate was measured based on the following equation. Inhibition rate={(B0−B)/B0}×100 (%)
(§5) Evaluation was such that the larger this inhibition rate is, the higher the specificity of the anti-dioxin antibody to the dioxin compound.

[2] = tested on: monoclonal antibody of clone C-2 (anti-dioxin antibody); assay: Competitive EIA: inhibition of binding of clone C-2 monoclonal antibody to solid-phase antigen by free dioxin; set-up: species or system mouse
Protocol: as §1, §2, §3, §4, §5

[3] = tested on: monoclonal antibody of clone C-3 (anti-dioxin antibody); assay: Competitive EIA: inhibition of binding of clone C-3 monoclonal antibody to solid-phase antigen by free dioxin; set-up: species or system mouse
Protocol: as §1, §2, §3, §4, §5

[4] = tested on: anti-dioxin antibody (monoclonal antibody) to 1,2,3,7,8-PeCDF; format: binding, mouse; conditions: Table 2, dioxins having TEF; solid-phase antigen (IIa); antibody to 1,2,3,7,8-PeCDF
Protocol: as §3, §4
An anti-dioxin antibody (monoclonal antibody) to 1,2,3,7,8-PeCDF is used as an antibody. A haptenized product of a solid-phase antigen 6-(2,4,5-trichlorophenoxy) hexanoic acid amide derivative (IIa) and the chlorine-containing organic compounds in Tables 2 and 3 were allowed to compete with each other to this anti-dioxin antibody so that a competitive reaction was effected in the same manner as in Example 3. Then, the cross-reactivity was examined.

[5] = toxicity equivalent factor of the dioxins used; cited from earlier work
[6] = solid-phase antigen * (haptenized product of 6-(2,4,5-trichlorophenoxy) hexanoic acid amide derivative IIa), dioxin compound 5×10^−7 M
[7] = solid-phase antigen immunogen 1, dioxin compound final concentration 5×10^−7 M
[8] = solid-phase antigen immunogen 2, dioxin compound final concentration 5×10^−7 M
[9] = solid-phase antigen immunogen 3, dioxin compound final concentration 5×10^−7 M

| Compound | Inhibition rate [1, 6] | Inhibition rate [1, 7] | Inhibition rate [2, 6] | Inhibition rate [2, 8] | Inhibition rate [3, 6] | Inhibition rate [3, 9] | cross reaction [4] | TEF value [5] |
| --- | --- | --- | --- | --- | --- | --- | --- | --- |
| Clc1cc2c(c(Cl)c1Cl)Oc1c(Cl)c(Cl)c(Cl)c(Cl)c1O2 [1,2,3,4,6,7,8-HpCDD] | 1.4% | 1.5% | −3.2% | −12.4% | 2.1% | 0.4% | 17.0% | 0.01 |
| Clc1cc2oc3cc(Cl)c(Cl)cc3c2cc1Cl [2,3,7,8-TeCDF] | 8.4% | 1.6% | 37.6% | 15.3% | 4.3% | −1.6% | 1.5% | 0.1 |
| Clc1cc2c(c(Cl)c1Cl)Oc1cc(Cl)c(Cl)c(Cl)c1O2 [1,2,3,6,7,8-HxCDD] | −0.3% | 3.1% | 2.2% | −6.2% | 6.7% | 3.9% | 18.0% | 0.1 |
| Clc1cc2oc3c(Cl)c(Cl)c(Cl)c(Cl)c3c2c(Cl)c1Cl [1,2,3,4,7,8,9-HpCDF] | 7.1% | 5.8% | 7.5% | 27.7% | 11.3% | 6.1% | 28.7% | 0.01 |
